In patent US11524966B1 (Valo Early Discovery, Inc., priority 2017, dated 2022):

Molecular target: T1, USP25 (USP25-His6, Boston Biochem E-546) (Homo sapiens, UniProt Q9UHP3)
T1 construct: His6; purchased Boston Biochem E-546
T1 sequence (Q9UHP3 1-1055): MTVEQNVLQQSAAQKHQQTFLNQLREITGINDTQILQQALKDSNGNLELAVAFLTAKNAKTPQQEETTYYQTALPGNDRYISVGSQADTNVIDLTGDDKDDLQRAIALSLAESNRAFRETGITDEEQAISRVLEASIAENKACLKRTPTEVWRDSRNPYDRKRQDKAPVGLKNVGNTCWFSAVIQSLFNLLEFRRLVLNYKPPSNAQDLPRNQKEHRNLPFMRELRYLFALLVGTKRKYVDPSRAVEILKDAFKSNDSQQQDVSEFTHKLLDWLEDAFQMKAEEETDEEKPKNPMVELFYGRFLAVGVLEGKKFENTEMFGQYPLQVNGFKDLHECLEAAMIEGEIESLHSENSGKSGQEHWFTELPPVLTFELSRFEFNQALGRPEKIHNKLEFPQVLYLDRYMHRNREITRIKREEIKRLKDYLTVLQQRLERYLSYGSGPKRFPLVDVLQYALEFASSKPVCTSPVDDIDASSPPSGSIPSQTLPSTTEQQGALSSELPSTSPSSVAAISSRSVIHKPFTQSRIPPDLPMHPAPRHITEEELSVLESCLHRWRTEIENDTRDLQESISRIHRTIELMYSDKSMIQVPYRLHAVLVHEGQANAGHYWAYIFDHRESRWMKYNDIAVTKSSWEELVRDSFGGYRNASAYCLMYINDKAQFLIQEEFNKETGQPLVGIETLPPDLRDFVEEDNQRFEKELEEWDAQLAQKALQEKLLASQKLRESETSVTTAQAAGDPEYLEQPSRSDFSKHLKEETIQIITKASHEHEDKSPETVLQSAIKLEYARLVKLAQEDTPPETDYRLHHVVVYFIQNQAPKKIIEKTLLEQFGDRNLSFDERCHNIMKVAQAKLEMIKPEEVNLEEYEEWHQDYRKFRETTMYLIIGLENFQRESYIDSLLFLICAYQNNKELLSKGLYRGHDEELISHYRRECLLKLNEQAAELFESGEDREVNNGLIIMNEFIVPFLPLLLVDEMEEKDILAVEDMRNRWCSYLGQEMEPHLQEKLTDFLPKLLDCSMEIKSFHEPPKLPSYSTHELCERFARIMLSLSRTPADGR
Test: Ubiquitin-Rhodamine 110 Assay for USP25 Activity, Example A-2
Format: biochemical
Settings: Ub-Rh110 assay, Example A-2; read-out: USP25 A-2 IC50 range
Description: The assay was performed in a final volume of 9 μL in assay buffer containing 20 mM Tris-HCl (pH 8.0, (1M Tris-HCl, pH 8.0 solution; Corning 46-031-CM)), 3 mM BME (2-Mercaptoethanol; Sigma 63689-25ML-F), 0.03% BGG (0.22 μM filtered, Sigma, G7516-25G), and 0.01% Triton X-100 (Sigma, T9284-10L). Nanoliter quantities of 10-point, 3-fold serial dilution in DMSO was pre-dispensed into 1536 assay plates (Corning, #3724BC) for a final test concentration of 25 μM to 1.3 nM, top to lowest dose, respectively. Enzyme USP25, construct USP25-His6, (Boston Biochem E-546). Concentration and incubation times were optimized for the maximal signal-to-background while maintaining initial velocity conditions at a fixed substrate concentration. The final concentration of the enzyme in the assay was 75 pM. Final substrate (Ub-Rh110; Ubiquitin-Rhodamine 110, R&D Systems #U-555) concentration was 25 nM with [Ub-Rh110]<<Km. 3 μL of 2× enzyme was added to assay plates (pre-stamped with compound) preincubated with […] for 30 minutes and then 3 μL of 2×Ub-Rh110 was added to assay plates. Plates were incubated for 45 minutes at room temperature before addition of 3 μL of stop solution (final concentration of 10 mM citric acid (Sigma, 251275-500G)). Fluorescence was read on the Envision (Excitation at 485 nm and Emission at 535 nm; Perkin Elmer) or on the PheraSTAR (Excitation at 485 nm and Emission at 535 nm; BMG Labtech).
IC50 values were determined by curve fitting of the standard 4 parameter logistic fitting algorithm included in the Activity Base software package: IDBS XE Designer Model 205. Data is fitted using the Levenburg Marquardt algorithm.

Compound | IC50 [nM]
Cc1nc2sc(C(=O)N[C@@H]3COc4cc(N5CCNCC5)ccc4C3)c(N)c2cc1F (single isomer, unassigned) [Example 1-16] | > 2000
Cc1ccc2c(N)c(C(=O)N[C@@H]3COc4cc(N5CC6CC(C5)N6)cc(F)c4C3)sc2n1 (single isomer, unassigned) [Example 1-41] | 50 to 200
Cc1ccc2c(N)c(C(=O)N[C@H]3COc4cc(N5CCNCC5)c(F)cc4C3)sc2n1 [Example 1-35, (R)-3-amino-N-(6-fluoro-7-(piperazin-1-yl)chroman-3-yl)-6-methylthieno[2,3-b]pyridine-2-carboxamide] | 200 to 2000
Cc1nc2sc(C(=O)N[C@@H]3COc4cc(N5CC6CCC(C5)N6)cc(F)c4C3)c(N)c2s1 (single isomer, unassigned) [Example 1-40] | > 2000
Cc1cnc2c(N)c(C(=O)N[C@H]3COc4cc(N5CC6CNCC(C5)O6)ccc4C3)sc2n1 [Example 2-13, N-((3R)-7-(9-oxa-3,7-diazabicyclo[3.3.1]nonan-3-yl)chroman-3-yl)-7-amino-3-methylthieno[2,3-b]pyrazine-6-carboxamide] | 200 to 2000
Cc1ccc2c(N)c(C(=O)N[C@H]3COc4cc(N5CC6CCC(C5)N6)ccc4C3)sc2n1 (single isomer, unassigned) [Example 1-3] | 1 to 50
Cc1ccc2c(N)c(C(=O)N[C@H]3COc4cc(N5CCNCC56COC6)ccc4C3)sc2n1 [Example 2-10] | 50 to 200
Cc1nc2sc(C(=O)N[C@H]3COc4cc(N5CC6CCC(C5)N6)cc(F)c4C3)c(N)c2s1 (single isomer, unassigned) [Example 1-39] | 200 to 2000
Cc1ccc2c(N)c(C(=O)N[C@H]3COc4cc(N5CCNC[C@H]5C)ccc4C3)sc2n1 [Example 2-5, 3-amino-6-methyl-N-((R)-7-((R)-2-methylpiperazin-1-yl)chroman-3-yl)thieno[2,3-b]pyridine-2-carboxamide] | 1 to 50
Cc1nc2sc(C(=O)N[C@H]3COc4cc(N5CC6CCCC(C5)N6)ccc4C3)c(N)c2s1 [Example 2-27] | 200 to 2000
Cc1cc(C(F)(F)F)c2c(N)c(C(=O)N[C@H]3COc4cc(N5CC6CNCC(C5)O6)ccc4C3)sc2n1 [Example 2-23, N-((3R)-7-(9-oxa-3,7-diazabicyclo[3.3.1]nonan-3-yl)chroman-3-yl)-3-amino-6-methyl-4-(trifluoromethyl)thieno[2,3-b]pyridine-2-carboxamide] | 1 to 50
Cc1ccc2c(N)c(C(=O)N[C@H]3COc4cc(N5CCCC56CNC6)ccc4C3)sc2n1 [Example 2-7, (R)-N-(7-(2,5-diazaspiro[3.4]octan-5-yl)chroman-3-yl)-3-amino-6-methylthieno[2,3-b]pyridine-2-carboxamide] | 200 to 2000
Cc1nc2sc(C(=O)N[C@@H]3COc4cc(N5CCNCC5)cc(F)c4C3)c(N)c2s1 (single isomer, unassigned) [Example 1-38] | 200 to 2000
Nc1c(C(=O)N[C@H]2COc3cc(N4CC5CC(C4)N5)ccc3C2)sc2nc(F)ccc12 [Example 2-14, N-((3R)-7-(3,6-diazabicyclo[3.1.1]heptan-3-yl)chroman-3-yl)-3-amino-6-fluorothieno[2,3-b]pyridine-2-carboxamide] | 200 to 2000
Cc1cnc2c(N)c(C(=O)N[C@H]3COc4cc(N5CC6CC(C5)N6)ccc4C3)sc2n1 [Example 2-11, N-((3R)-7-(3,6-diazabicyclo[3.1.1]heptan-3-yl)chroman-3-yl)-7-amino-3-methylthieno[2,3-b]pyrazine-6-carboxamide] | 50 to 200
Cc1cc(C)c2c(N)c(C(=O)N[C@H]3COc4cc(N5CCNCC5)c(C#N)c(F)c4C3)sc2n1 [Example 2-32, (R)-3-amino-N-(6-cyano-5-fluoro-7-(piperazin-1-yl)chroman-3-yl)-4,6-dimethylthieno[2,3-b]pyridine-2-carboxamide] | 1 to 50

Compound | IC50 [nM]
Cc1ccc2c(N)c(C(=O)N[C@@H]3COc4cc(N5CCNCC5)c(OC(F)(F)F)cc4C3)sc2n1 (single isomer, unassigned) [Example 1-32] | 200 to 2000
Cc1cc(C(F)(F)F)c2c(N)c(C(=O)N[C@H]3COc4cc(N5CC6CC(C5)N6)ccc4C3)sc2n1 [Example 2-21] | 50 to 200
Cc1nc2sc(C(=O)N[C@H]3COc4cc(N5CC6CNCC(C5)C6(F)F)ccc4C3)c(N)c2s1 [Example 2-28, 6-amino-N-((3R)-7-(9,9-difluoro-3,7-diazabicyclo[3.3.1]nonan-3-yl)chroman-3-yl)-2-methylthieno[2,3-d]thiazole-5-carboxamide] | 50 to 200
Cc1ccc2c(N)c(C(=O)N[C@H]3COc4cc(N5CCC[C@@](N)(C(F)(F)F)C5)ccc4C3)sc2n1 (single isomer, unassigned) [Example 3-3] | 50 to 200
[2H]C([2H])([2H])O[C@H]1CN(c2ccc3c(c2)OC[C@H](NC(=O)c2sc4nc(C)ccc4c2N)C3)C[C@@H]1N [Example 2-38, 3-amino-N-((R)-7-((3S,4S)-3-amino-4-(methoxy-d3)pyrrolidin-1-yl)chroman-3-yl)-6-methylthieno[2,3-b]pyridine-2-carboxamide] | 200 to 2000
Cc1ccc2c(N)c(C(=O)N[C@@H]3COc4cc(N5CCN[C@H](C)[C@H]5C)ccc4C3)sc2n1 (single isomer, unassigned) [Example 1-12] | 1 to 50
Cc1ccc2c(N)c(C(=O)N[C@H]3COc4cc(N5CCN[C@H](C)[C@@H]5C)ccc4C3)sc2n1 (single isomer, unassigned) [Example 1-9] | 200 to 2000
Cc1cnc2c(N)c(C(=O)N[C@@H]3CCc4cc(N5CCNCC5)c(C)cc4C3)sc2n1 (single isomer, unassigned) [Example 2-35] | > 2000
O=C(N[C@H]1COc2cc(N3CC4CCC(C3)N4)ccc2C1)c1cnc2c(c1)C1(CCN2)CC1 [Example 2-24, N-((3R)-7-(3,8-diazabicyclo[3.2.1]octan-3-yl)chroman-3-yl)-2′,3′-dihydro-1′H-spiro[cyclopropane-1,4′-[1,8]naphthyridine]-6′-carboxamide] | 200 to 2000
Cc1nc2sc(C(=O)N[C@H]3COc4cc(N5CCNCC5)cc(F)c4C3)c(N)c2s1 (single isomer, unassigned) [Example 1-37] | > 2000
Cc1ccc2c(N)c(C(=O)N[C@H]3COc4cc(N5CC6CNCC(C5)C6(F)F)c(C#N)cc4C3)sc2n1 [Example 2-33, 3-amino-N-((3R)-6-cyano-7-(9,9-difluoro-3,7-diazabicyclo[3.3.1]nonan-3-yl)chroman-3-yl)-6-methylthieno[2,3-b]pyridine-2-carboxamide] | 1 to 50
Cc1cnc2c(N)c(C(=O)N[C@@H]3CCc4c(ccc(N5CCNCC5)c4C)C3)sc2n1 (single isomer, unassigned) [Example 2-37] | 200 to 2000
Cc1ccc2c(N)c(C(=O)N[C@H]3COc4cc(N5CCNC[C@@H]5C)ccc4C3)sc2n1 [Example 2-4, 3-amino-6-methyl-N-((R)-7-((S)-2-methylpiperazin-1-yl)chroman-3-yl)thieno[2,3-b]pyridine-2-carboxamide] | 1 to 50
CO[C@H]1CN(c2ccc3c(c2)OC[C@H](NC(=O)c2sc4nc(C)ccc4c2N)C3)C[C@@H]1N (single isomer, unassigned) [Example 3-1] | 200 to 2000
Cc1ccc2c(N)c(C(=O)N[C@@H]3COc4cc(N5CCNCC5)ccc4C3)sc2n1 (single isomer, unassigned) [Example 1-2] | > 2000
